Source: patent US20210292736A1, “PROTEIN LABELLING” (The Provost, Fellows, Scholars and other Members of Board …, priority 2020, published 2021)

Key:
[1] = molecular target: T1, UCHL1 (Homo sapiens, UniProt P09936); assay: Eosin Y visible light-mediated labelling of recombinant UCHL1; assay type: biochemical; settings: UCHL1 2 μg, probe 1 3 μg; 10 W white light from 50 cm vs UV 365 nm
T1 sequence (P09936 1-223): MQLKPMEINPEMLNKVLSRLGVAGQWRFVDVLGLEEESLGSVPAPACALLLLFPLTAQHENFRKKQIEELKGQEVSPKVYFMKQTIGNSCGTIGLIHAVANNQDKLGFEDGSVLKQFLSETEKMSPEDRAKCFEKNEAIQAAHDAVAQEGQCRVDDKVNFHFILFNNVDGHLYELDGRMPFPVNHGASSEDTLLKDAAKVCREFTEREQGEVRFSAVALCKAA
Experimental: (§1) FIG. 18—comparative analysis of labelling using Eosin Y as the initiator relative to DPAP and MAP for recombinant enzymes OTUB1 (2 μg) and UCHL1 (2 μg), lanes 2-4 and 5-7, with probe 1 (3 μg) visualised by anti-HA western blot. Samples were preincubated for 90 min at 37° C. Lanes 3 and 6 were degassed for 2 min using N2 before the addition of DPAP and MAP or Eosin Y to the indicated samples. A further incubation was carried out for 10 min at 37° C. while lanes 3 and 6 were exposed to UV light (365 nm) and lanes 4, and 7 were exposed to a 10 W white light lamp from 50 cm.
Once optimised, a comparative labelling was carried out between these optimised Eosin Y labelling conditions versus the conditions optimised for DPAP and MAP labelling (FIG. 18). At this point to check the generality of the method, a further DUB, UCHL1 was tested alongside OTUB1.
Probe 1 ([…]) was incubated with OTUB1 (0.2 μL, 13.78 μg/μL, in storage buffer) or UCHL1 (3.3 μL, 0.9 μg/μL, in storage buffer). The final volume of the labelling was adjusted to 30 μL with homogenisation buffer containing TCEP (1 mM). A stock solution of Eosin Y (0.29 mM in DMSO—homogenisation buffer, 4:1) was prepared fresh before use and protected from light. The reaction was preincubated for 90 min at 37° C. with gentle shaking before the addition of Eosin Y (0.5 μL of stock for recombinant enzyme labelling, final conc.=5 μM). […]

[2] = molecular target: recombinant DUB OTUB1 (Homo sapiens, UniProt Q96FW1); assay: Eosin Y visible light-mediated labelling of recombinant OTUB1; assay type: biochemical; set-up: His; settings: OTUB1 2 μg, probe 1 3 μg; 10 W white light from 50 cm vs UV 365 nm
recombinant DUB OTUB1, sequence (Q96FW1 whole entry): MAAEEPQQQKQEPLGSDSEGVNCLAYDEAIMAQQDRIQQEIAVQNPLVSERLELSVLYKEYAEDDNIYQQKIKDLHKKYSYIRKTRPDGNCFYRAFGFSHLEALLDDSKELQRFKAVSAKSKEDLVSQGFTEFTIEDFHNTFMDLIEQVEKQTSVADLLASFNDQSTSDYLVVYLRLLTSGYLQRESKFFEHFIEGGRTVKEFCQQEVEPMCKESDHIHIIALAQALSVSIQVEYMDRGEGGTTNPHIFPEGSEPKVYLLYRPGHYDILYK
Experimental: FIG. 13—labelling of OTUB1 (2 μg) with probe 1 (3 μg) visualised by anti-HA western blot. Samples were preincubated for 90 min at 37° C. before the addition of Eosin Y. Samples were incubated for a further 10 min at 37° C. in the dark (lane 3) in ambient light (lane 4) or exposed to a 10 W white light lamp from 10 cm (lane 5).
as §1
Firstly, the reactivity of the probe with the recombinant DUB OTUB1 was assessed using Eosin Y as the sole photoinitiator (FIG. 13). Triethanolamine, or similar coinitiators, could be used in combination with Eosin Y. The reaction was initiated using ambient light or a 10 W white light bulb. As a control, an equivalent sample was kept in darkness for the duration of the experiment. […]

[3] = system: DUBs in HEK 293T cell lysate; assay: Thiol-ene labelling in HEK293T cell lysate (anti-HA western blot); assay type: biochemical, H. sapiens; settings: NEM 10 mM (FIG. 3A lane 8 vs 4)
Experimental: Controls included using NEM (10 mM), the Ub75CH2CH2Br probe (1 μg) and a labelling excluding initiators. (B) HEK 293T cell lysate (50 μg) was pre-incubated for varying periods of time with probe 1 (1 μg) before exposure to UV light (365 nm) for 2 min.
After confirming reactivity with a recombinant DUB, probe 1 was tested in HEK293T cell lysate using conditions analogous to those described for the recombinant enzyme labelling (FIG. 3). […] Exposure time to UV light was optimised, with conditions tested from […] (FIG. 3A, lanes 2-7). No labelling is observed at the 0 minute time point (FIG. 3A, lane 2). There is no discernible difference between the 1 minute and 10 minute timepoints (FIG. 3A, lanes 3 and 4). […] Two further control experiments were performed to validate the need for free thiols and to compare to an existing probe. […] Covalent bond formation therefore requires free cysteine residues. A labelling reaction with the known HA-Ub75CH2CH2Br probe was subjected to the same conditions as the thiol-ene labelling to confirm there was no degradation of the lysate under these conditions (FIG. 3A, lanes 9 and 10).
It was next examined how the pre-incubation period affected the labelling pattern (FIG. 3B, lanes 1-5). It was reasoned that prior to activation, a binding equilibrium must be established between the probe and target enzymes to yield the rapid labelling observed. […]

[4] = system: DUBs in HEK293T cell lysate; assay: PR-619 pre-incubation assay; assay type: biochemical, H. sapiens; settings: lysate pre-incubated with increasing concentrations of PR-619, then probe 1 (1 μg) 90 min, UV 2 min
Experimental: (§2) (A) HEK 293T cell lysate (50 μg) was pre-incubated for 90 min with increasing concentrations of PR-619 before being labelled with the probe 1 (1 μg). (B) HEK 293T cell lysate (50 μg) was pre-incubated with probe 1 (1 μg) for 90 min before PR-619 was added at increasing concentrations. (C) HEK 293T cell lysate (50 μg) was incubated with Ub75CH2CH2Br and PR 619 (100 μM) was added to one sample. All samples were exposed to UV light (365 nm) for 2 min.
(§3) It was next set out to test the modulation of labelling using the known pan DUB inhibitor, PR-619 (X. Tian, N. S. Isamiddinova, R. J. Peroutka, S. J. Goldenberg, M. R. Mattern, B. Nicholson and C. Leach, Assay Drug Dev Technol, 2011, 9, 165-173). PR-619 was incubated with cell lysate for 30 min prior to the addition of probe 1 and the labelling was then carried out under optimised conditions with a 90 min pre-incubation time. […] This implies specificity of probe 1 towards DUBs. […] PR-619 was titrated into the mixture at increasing concentrations and incubated for a further 30 min before the addition of initiators and exposure to UV light (FIG. 4B). A parallel experiment was set up with the Ub75CH2CH2Br probe for comparison (FIG. 4C). […] (FIG. 4C, lanes 2 and 3). To check the integrity of the probe and cell lysate under these conditions a silver stain of the samples was also performed (FIG. 9). […]

[5] = system: DUBs in HEK293T cell lysate; assay: PR-619 equilibrium disruption assay; assay type: biochemical, H. sapiens; settings: probe 1 pre-incubated with lysate 90 min, PR-619 titrated 0-100 μM, further 30 min, UV 2 min
Experimental: as §2, §3

Q: Which results are given for `O=C([O-])c1ccccc1-c1c2cc(Br)c(=O)c(Br)c-2oc2c(Br)c([O-])c(Br)cc12.[Na+].[Na+]` [Eosin Y, reference compound]?
A: probe capture with Eosin Y relative to DPAP and MAP [1]: probe capture was comparable; probe capture with Eosin Y relative to DPAP and MAP [2]: probe capture was comparable

Q: With `CCN1C(=O)C=CC1=O` [NEM, N-ethylmaleimide, reference compound] as the compound, how does the “effect on probe 1 labelling” value [3] read?
A: inhibited labelling

Q: What does the source list for `N#CSc1cc(SC#N)c(N)nc1N` [PR-619]?
A: effect on probe 1 labelling intensity, inhibitor before probe [4]: concentration-dependent reduction in labelling intensity; effect on probe 1 labelling, inhibitor added after binding equilibrium [5]: abrogates the labelling in a concentration dependent manner
